# Results published in patent US12371454B2, “Cyclic peptide compound having Kras inhibitory action” (priority 2019, dated 2025).
# pIC50: −log10 of the molar value. Starred links: 1 amine or outer side, 2 acyl side, 3 side chain; linkers in the order of their positions; H or OH if unused. Positions of bridges follow the written chain, without caps; N, C: chain ends. Non-standard residues stand in square brackets, D forms with d. Residues, ends and D or L forms follow the SMILES beside them. *: point of attachment. hPhe(3,5-F2-4-CF3) = N[C@@H](CCc1cc(F)c(C(F)(F)F)c(F)c1)C(=O)O; hPhe(3-Cl-4-CF3) = N[C@@H](CCc1ccc(C(F)(F)F)c(Cl)c1)C(=O)O; NMePhe(3-CF3) = CN[C@@H](Cc1cccc(C(F)(F)F)c1)C(=O)O; X49 = Cn1ccc2cc(CC[C@H](N[*:1])C(=O)[*:2])ccc21; NMePhe(4-Me) = CN[C@@H](Cc1ccc(C)cc1)C(=O)O; X3 = CN([C@@H](CCc1ccncc1)C(=O)[*:2])[*:1]; NMedβ3hAla = C[C@H](CC(=O)[*:2])N(C)[*:1]; NMeGly(cPent) = CN[C@H](C(=O)O)C1CCCC1; NMe3Pal = CN[C@@H](Cc1cccnc1)C(=O)O; NMeCha = CN[C@@H](CC1CCCCC1)C(=O)O; NMeChg = CN[C@H](C(=O)O)C1CCCCC1; NMeI = CC[C@H](C)[C@H](NC)C(=O)O; N(CH2CH2)2CF2 = FC1(F)CCN(*)CC1; NMeD = CN[C@@H](CC(=O)O)C(=O)O; NMeL = CN[C@@H](CC(C)C)C(=O)O; NMeNva = CCC[C@H](NC)C(=O)O; NMeV = CN[C@H](C(=O)O)C(C)C; Trifluoroethyl = FC(F)(F)C*; d(β3hA) = C[C@@H](N)CC(=O)O; NMeS = CN[C@@H](CO)C(=O)O; Morpholide = C1CN(*)CCO1; NMeA = CN[C@@H](C)C(=O)O; Piperidide = C1CCN(*)CC1; Ac5c = NC1(C(=O)O)CCCC1; Aze = O=C(O)[C@@H]1CCN1; Ac4c = NC1(C(=O)O)CCC1; Aib = CC(C)(N)C(=O)O; Sar = CNCC(=O)O
# Experiments:
# [1] = tested on: Human pancreatic cancer cell line AsPC-1; test: Measurement of AsPC-1 cell growth inhibition (AsPC-1 CGI); type: cell-based; conditions: 96 h
# How it was run: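 AsPC-1 cells in 15% FBS RPMI-1640 were exposed to test compound for 96 hours at 37° C, with CellTiter-Glo as endpoint.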
# [2] = biological target: T1, Kras and SOS1 (biotin-tagged human Kras loaded with GDP, His-tagged human SOS1) (Homo sapiens, UniProt P01116, G12D); test: Protein-protein interaction inhibition between Kras and SOS1 (KrasGl2D-SOS PPI) using AlphaScreen; type: binding; conditions: AlphaScreen; biotin-tagged human Kras loaded with GDP, His-tagged human SOS1; read-out: KRAS G12D-SOS PPI IC50
# T1 construct: made in house; host or cells: E. coli (stated for Kras only)
# T1 sequence (P01116 1-188 isoform P01116-2 G12D): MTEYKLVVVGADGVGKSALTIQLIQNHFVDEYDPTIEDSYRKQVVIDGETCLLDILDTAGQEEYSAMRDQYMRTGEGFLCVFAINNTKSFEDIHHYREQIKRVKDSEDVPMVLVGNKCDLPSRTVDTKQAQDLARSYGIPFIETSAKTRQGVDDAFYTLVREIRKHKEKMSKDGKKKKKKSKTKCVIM
# How it was run: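 Energy transfer from nickel-chelate donor beads bound to His-SOS1 to streptavidin acceptor beads bound to biotin-Kras, expressed in E. coli and loaded with GDP after purification, was monitored. Donors were excited at 680 nm; singlet oxygen reaching acceptors gave emission read at 520-620 nm.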
Compound,pIC50 [1],pIC50 [2]
CC[C@H](C)[C@@H]1NC(=O)[C@H](CC(C)C)N(C)C(=O)C[C@@H](C)NC(=O)[C@H](C2CCCC2)N(C)C(=O)C2(CCCC2)NC(=O)[C@@H]2CCCN2C(=O)[C@H](CCc2ccc(C(F)(F)F)c(Cl)c2)NC(=O)CN(C)C(=O)[C@H](Cc2ccc(C)cc2)N(C)C(=O)[C@@H]2CCN2C(=O)[C@H](C)N(C)C1=O [Compound 1537] (cyclo([Ac5c][NMeGly(cPent)][d(β3hA)][NMeL]I[NMeA][Aze][NMePhe(4-Me)][Sar][hPhe(3-Cl-4-CF3)]P)),7.00 to 7.30,8.41
CC[C@H](C)[C@@H]1NC(=O)[C@H](CC(C)C)N(C)C(=O)C[C@@H](C(=O)N(C)C)N(C)C(=O)[C@H](C(C)C)N(C)C(=O)C2(CCCC2)NC(=O)[C@@H]2CCCN2C(=O)[C@H](CCc2ccc(C(F)(F)F)c(Cl)c2)NC(=O)CN(C)C(=O)[C@H](CC2CCCCC2)N(C)C(=O)[C@@H]2CCN2C(=O)[C@H](C)N(C)C1=O [Compound 1728] ([NMeL]I[NMeA][Aze][NMeCha][Sar][hPhe(3-Cl-4-CF3)]P[Ac5c][NMeV][NMeD]-NMe2; lactam N-11),7.00 to 7.30,8.92
CC[C@H](C)[C@@H]1NC(=O)[C@H](CC(C)C)N(C)C(=O)C[C@@H](C)NC(=O)[C@H]([C@@H](C)CC)N(C)C(=O)C2(CCCC2)NC(=O)[C@@H]2CCCN2C(=O)[C@H](CCc2ccc(C(F)(F)F)c(Cl)c2)NC(=O)CN(C)C(=O)[C@H](Cc2ccc(C)cc2)N(C)C(=O)CN(C)C(=O)CN(C)C1=O [Compound 1774] (cyclo([Ac5c][NMeI][d(β3hA)][NMeL]I[Sar][Sar][NMePhe(4-Me)][Sar][hPhe(3-Cl-4-CF3)]P)),6.30 to 7.00,9.08
CC[C@H](C)[C@@H]1NC(=O)[C@H](CC(C)C)N(C)C(=O)C[C@@H](C(=O)N2CCCCC2)N(C)C(=O)[C@H](C2CCCC2)N(C)C(=O)C2(CCCC2)NC(=O)[C@@H]2CCCN2C(=O)[C@H](CCc2ccc(C(F)(F)F)c(Cl)c2)NC(=O)CN(C)C(=O)[C@H](Cc2ccc(C)cc2)N(C)C(=O)CN(C)C(=O)CN(C)C1=O [Compound 1850] ([NMeL]I[Sar][Sar][NMePhe(4-Me)][Sar][hPhe(3-Cl-4-CF3)]P[Ac5c][NMeGly(cPent)][NMeD]-Piperidide; lactam N-11),7.30 to 7.70,9.22
CC[C@H](C)[C@@H]1NC(=O)[C@H](CC(C)C)N(C)C(=O)C[C@@H](C(=O)N2CCOCC2)N(C)C(=O)[C@H](C(C)C)N(C)C(=O)C2(CCCC2)NC(=O)[C@@H]2CCCN2C(=O)[C@H](CCc2ccc(C(F)(F)F)c(Cl)c2)NC(=O)CN(C)C(=O)[C@H](CC2CCCCC2)N(C)C(=O)[C@@H]2CCN2C(=O)[C@H](C)N(C)C1=O [Compound 1178] ([NMeL]I[NMeA][Aze][NMeCha][Sar][hPhe(3-Cl-4-CF3)]P[Ac5c][NMeV][NMeD]-Morpholide; lactam N-11),7.00 to 7.30,9.00
CC[C@H](C)[C@@H]1NC(=O)[C@H](C2CCCCC2)N(C)C(=O)C[C@@H](C)NC(=O)[C@H](C(C)C)N(C)C(=O)C2(CCCC2)NC(=O)[C@@H]2CCCN2C(=O)[C@H](CCc2ccc(C(F)(F)F)c(Cl)c2)NC(=O)CN(C)C(=O)[C@H](CC2CCCCC2)N(C)C(=O)CN(C)C(=O)CN(C)C1=O [Compound 456] (cyclo([Ac5c][NMeV][d(β3hA)][NMeChg]I[Sar][Sar][NMeCha][Sar][hPhe(3-Cl-4-CF3)]P)),6.30 to 7.00,7.47
CC[C@H](C)[C@@H]1NC(=O)[C@H](CC(C)C)N(C)C(=O)C[C@@H](C(=O)N2CCCCC2)N(C)C(=O)[C@H](C(C)C)N(C)C(=O)C2(CCCC2)NC(=O)[C@@H]2CCCN2C(=O)[C@H](CCc2ccc(C(F)(F)F)c(Cl)c2)NC(=O)CN(C)C(=O)[C@H](CC2CCCCC2)N(C)C(=O)CN(C)C(=O)CN(C)C1=O [Compound 438] ([NMeL]I[Sar][Sar][NMeCha][Sar][hPhe(3-Cl-4-CF3)]P[Ac5c][NMeV][NMeD]-Piperidide; lactam N-11),7.00 to 7.30,8.22
"CC[C@H](C)[C@@H]1NC(=O)[C@H](CC(C)C)N(C)C(=O)C[C@@H](C)NC(=O)[C@H](CC(C)C)N(C)C(=O)C(C)(C)NC(=O)[C@H](CC(C)C)N(C)C(=O)[C@H](CCc2cc(F)c(C(F)(F)F)c(F)c2)NC(=O)CN(C)C(=O)[C@H](CC2CCCCC2)N(C)C(=O)CN(C)C(=O)CN(C)C1=O [Compound 119] (cyclo([Aib][NMeL][d(β3hA)][NMeL]I[Sar][Sar][NMeCha][Sar][hPhe(3,5-F2-4-CF3)][NMeL]))",6.30 to 7.00,7.41
CC[C@H](C)[C@@H]1NC(=O)[C@H](CC(C)C)N(C)C(=O)C[C@@H](C(=O)N2CCCCC2)N(C)C(=O)[C@H](C2CCCCC2)N(C)C(=O)C2(CCCC2)NC(=O)[C@@H]2CCCN2C(=O)[C@H](CCc2ccc(C(F)(F)F)c(Cl)c2)NC(=O)CN(C)C(=O)[C@H](COCC(F)(F)F)N(C)C(=O)CN(C)C(=O)CN(C)C1=O [Compound 732] ([NMeL]I[Sar][Sar][NMeS](Trifluoroethyl)[Sar][hPhe(3-Cl-4-CF3)]P[Ac5c][NMeChg][NMeD]-Piperidide; lactam N-11),6.30 to 7.00,8.85
CC[C@H](C)[C@@H]1NC(=O)[C@H](CC(C)C)N(C)C(=O)C[C@@H](C(=O)N2CCCCC2)N(C)C(=O)[C@H](C2CCCC2)N(C)C(=O)C2(CCCC2)NC(=O)[C@@H]2CCCN2C(=O)[C@H](CCc2ccc3c(ccn3C)c2)NC(=O)CN(C)C(=O)[C@H](CC2CCCCC2)N(C)C(=O)[C@@H]2CCN2C(=O)[C@H](C)N(C)C1=O [Compound 2064] ([NMeL]I[NMeA][Aze][NMeCha][Sar][X49]P[Ac5c][NMeGly(cPent)][NMeD]-Piperidide; lactam N-11),6.30 to 7.00,7.92
CC[C@H](C)[C@@H]1NC(=O)[C@H](CC(C)C)N(C)C(=O)C[C@@H](C(=O)N(C)C)N(C)C(=O)[C@H](C2CCCC2)N(C)C(=O)C2(CCCC2)NC(=O)[C@H](Cc2cccnc2)N(C)C(=O)[C@H](CCc2ccc(C(F)(F)F)c(Cl)c2)NC(=O)CN(C)C(=O)[C@H](CC2CCCCC2)N(C)C(=O)[C@@H]2CCN2C(=O)[C@H](C)N(C)C1=O [Compound 1071] ([NMeL]I[NMeA][Aze][NMeCha][Sar][hPhe(3-Cl-4-CF3)][NMe3Pal][Ac5c][NMeGly(cPent)][NMeD]-NMe2; lactam N-11),6.30 to 7.00,8.89
CCC[C@H]1C(=O)NC2(CCCC2)C(=O)N(C)[C@@H](C2CCCCC2)C(=O)N(C)[C@H](C(=O)N2CCCCC2)CC(=O)N(C)[C@@H](CC(C)C)C(=O)N[C@@H]([C@@H](C)CC)C(=O)N(C)CC(=O)N2CC[C@H]2C(=O)N(C)[C@@H](CC2CCCCC2)C(=O)N(C)CC(=O)N[C@@H](CCc2ccc(C(F)(F)F)c(Cl)c2)C(=O)N1C [Compound 478] ([NMeL]I[Sar][Aze][NMeCha][Sar][hPhe(3-Cl-4-CF3)][NMeNva][Ac5c][NMeChg][NMeD]-Piperidide; lactam N-11),6.30 to 7.00,8.52
CC[C@H](C)[C@@H]1NC(=O)[C@H](CC(C)C)N(C)C(=O)C[C@@H](C)N(C)C(=O)[C@H](C(C)C)N(C)C(=O)C2(CCCC2)NC(=O)[C@@H]2CCCN2C(=O)[C@H](CCc2ccc(C(F)(F)F)c(Cl)c2)NC(=O)CN(C)C(=O)[C@H](Cc2cccc(C(F)(F)F)c2)N(C)C(=O)CN(C)C(=O)CN(C)C1=O [Compound 1572] (cyclo([Ac5c][NMeV][NMedβ3hAla][NMeL]I[Sar][Sar][NMePhe(3-CF3)][Sar][hPhe(3-Cl-4-CF3)]P)),7.00 to 7.30,8.01
CC[C@H](C)[C@@H]1NC(=O)[C@H](CC(C)C)N(C)C(=O)C[C@@H](C)N(C)C(=O)[C@H](C(C)C)N(C)C(=O)C2(CCC2)NC(=O)[C@@H]2CCCN2C(=O)[C@H](CCc2ccc(C(F)(F)F)c(Cl)c2)NC(=O)CN(C)C(=O)[C@H](CC2CCCCC2)N(C)C(=O)CN(C)C(=O)CN(C)C1=O [Compound 837] (cyclo([Ac4c][NMeV][NMedβ3hAla][NMeL]I[Sar][Sar][NMeCha][Sar][hPhe(3-Cl-4-CF3)]P)),7.00 to 7.30,8.22
CC[C@H](C)[C@@H]1NC(=O)[C@H](CC(C)C)N(C)C(=O)C[C@@H](C(=O)N(C)C)N(C)C(=O)[C@H]([C@@H](C)CC)N(C)C(=O)C2(CCCC2)NC(=O)[C@H](CC(=O)N2CCC(F)(F)CC2)N(C)C(=O)[C@H](CCc2ccc(C(F)(F)F)c(Cl)c2)NC(=O)CN(C)C(=O)[C@H](Cc2ccc(C)cc2)N(C)C(=O)[C@@H]2CCN2C(=O)[C@H](C)N(C)C1=O [Compound 1980] ([NMeL]I[NMeA][Aze][NMePhe(4-Me)][Sar][hPhe(3-Cl-4-CF3)][NMeD](N(CH2CH2)2CF2)[Ac5c][NMeI][NMeD]-NMe2; lactam N-11),6.30 to 7.00,8.82
CC[C@H](C)[C@@H]1NC(=O)[C@H](CC(C)C)N(C)C(=O)C[C@@H](C(=O)N2CCOCC2)N(C)C(=O)[C@H](C2CCCCC2)N(C)C(=O)C2(CCCC2)NC(=O)[C@@H]2CCCN2C(=O)[C@H](CCc2ccc(C(F)(F)F)c(Cl)c2)NC(=O)CN(C)C(=O)[C@H](Cc2ccc(C)cc2)N(C)C(=O)CN(C)C(=O)CN(C)C1=O [Compound 1872] ([NMeL]I[Sar][Sar][NMePhe(4-Me)][Sar][hPhe(3-Cl-4-CF3)]P[Ac5c][NMeChg][NMeD]-Morpholide; lactam N-11),7.30 to 7.70,9.19
CC[C@H](C)[C@@H]1NC(=O)[C@H](CC(C)C)N(C)C(=O)C[C@@H](C(=O)N(C)C)N(C)C(=O)[C@H](C2CCCC2)N(C)C(=O)C2(CCCC2)NC(=O)[C@H](CCc2ccncc2)N(C)C(=O)[C@H](CCc2ccc(C(F)(F)F)c(Cl)c2)NC(=O)CN(C)C(=O)[C@H](CC2CCCCC2)N(C)C(=O)[C@@H]2CCN2C(=O)[C@H](C)N(C)C1=O [Compound 1881] ([NMeL]I[NMeA][Aze][NMeCha][Sar][hPhe(3-Cl-4-CF3)][X3][Ac5c][NMeGly(cPent)][NMeD]-NMe2; lactam N-11),7.00 to 7.30,8.85
